As a reminder, the IC50 is the concentration at which inhibition is half-maximal. A low value points to higher potency.

In experiment [1] the target is T1, KRas-mediated phosphorylation of ERK in H358 cells (Homo sapiens, UniProt P01116, G12C).
T1 construct: pERK HTRF read-out
As to the kind of experiment: Inhibition of KRas-mediated phosphorylation of ERK (HTRF), H358 cells. In kind it is cell-based. To be noted: HTRF pERK, 3 h incubation. A general note: Time-resolved FRET reads energy transfer from a long-lived donor to a nearby acceptor.

For experiment [2], the target named is T2, KRas-mediated phosphorylation of ERK in MKN1 cells (Homo sapiens, UniProt P01116).
T2 construct: pERK HTRF read-out
T2 sequence (P01116 1-188 isoform P01116-2): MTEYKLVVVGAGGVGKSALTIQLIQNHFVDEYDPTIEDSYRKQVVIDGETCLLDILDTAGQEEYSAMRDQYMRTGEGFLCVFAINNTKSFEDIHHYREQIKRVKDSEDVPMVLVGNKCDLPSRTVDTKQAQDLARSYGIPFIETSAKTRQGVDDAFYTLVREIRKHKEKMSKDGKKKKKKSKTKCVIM
Nature of the experiment: Inhibition of KRas-mediated phosphorylation of ERK (HTRF), MKN1 cells. The class given is cell-based. The conditions noted are these: MKN1 cells (KRas WT); HTRF pERK; 3 h incubation. The procedure: Inhibition of KRas Phosphorylation of ERK (HTRF) by Exemplary Compounds of Formula (Ia) or (Ib)
Cisbio HTRF Advanced pERK Assay Catalog #64AERPEH • Cells: MKN1, PSN1 • Procedure: • 1. Day 1: Seed 6,000 cells/well −25 μl/well in 384-well white solid bottom plate; RPM1_10% FBS. Incubate overnight at 37 °C/5% CO2. • 2.

A further experiment concerns the target T3, KRas G12S (Homo sapiens, UniProt P01116, G12S).
T3 construct: Biotinylated KRas (corresponding to amino acids 1-169, produced at Accelegan Inc.); biotin (biotinylated); purchased Accelegan Inc
Nature of the experiment: KRas binding assay, TR-FRET displacement of Cy5 labelled tracer. The conditions noted are these: 60-minute incubation at room temperature, 1% DMSO, pH 7.5. Summed up:
(§1)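 Truncated KRas (1-169), biotinylated, Tb-streptavidin donor; one-hour room-temperature incubation; IC50 by four-parameter curve fitting.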

For a further experiment, the target named is T4, KRas WT (Homo sapiens, UniProt P01116).
T4 construct: Biotinylated KRas (corresponding to amino acids 1-169, produced at Accelegan Inc.); biotin (biotinylated); purchased Accelegan Inc
T4 sequence (P01116 1-169 isoform P01116-2): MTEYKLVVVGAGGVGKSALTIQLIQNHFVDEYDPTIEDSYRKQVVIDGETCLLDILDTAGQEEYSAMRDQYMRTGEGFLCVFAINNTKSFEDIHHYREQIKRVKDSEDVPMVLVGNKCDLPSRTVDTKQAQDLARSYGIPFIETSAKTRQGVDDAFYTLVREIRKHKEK
The description is as above. The conditions noted are these: 60-minute incubation at room temperature, 1% DMSO, pH 7.5. In short, it runs like this:
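KRas aa 1-169, biotinylated; Tb-streptavidin donor; 1% DMSO final. Buffer: HEPES 50 mM (pH 7.5), MgCl2 5 mM, DTT 1 mM, Tween-20 0.005%. 60 min, RT. IC50 from 4-parameter fit of POC.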

The next experiment addresses T5, KRas G12C (Homo sapiens, UniProt P01116, G12C).
T5 construct: Biotinylated KRas (corresponding to amino acids 1-169, produced at Accelegan Inc.); biotin (biotinylated); purchased Accelegan Inc
Described as above. The conditions noted are these: 60-minute incubation at room temperature, 1% DMSO, pH 7.5. Summed up:
as §1

Experiment [3] addresses T6, KRas-mediated phosphorylation of ERK in A549 cells (Homo sapiens, UniProt P01116, G12S).
T6 construct: pERK HTRF read-out
As to the kind of experiment: Inhibition of KRas-mediated phosphorylation of ERK (HTRF), A549 cells. In kind it is cell-based. The conditions noted are these: HTRF pERK, 3 h incubation.

T6 sequence (P01116 1-188 isoform P01116-2 G12S): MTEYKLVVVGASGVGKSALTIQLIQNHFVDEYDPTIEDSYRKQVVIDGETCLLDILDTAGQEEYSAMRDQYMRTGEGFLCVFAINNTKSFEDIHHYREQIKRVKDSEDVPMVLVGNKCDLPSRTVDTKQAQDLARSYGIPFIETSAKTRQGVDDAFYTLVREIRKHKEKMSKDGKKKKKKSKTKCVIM
T1 sequence (P01116 1-188 isoform P01116-2 G12C): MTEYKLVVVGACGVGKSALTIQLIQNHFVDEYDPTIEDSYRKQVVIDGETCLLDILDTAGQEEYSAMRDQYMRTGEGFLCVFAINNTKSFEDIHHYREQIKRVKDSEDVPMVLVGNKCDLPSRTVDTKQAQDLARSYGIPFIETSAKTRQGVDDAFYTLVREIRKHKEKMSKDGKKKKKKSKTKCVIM
T3 sequence (P01116 1-169 isoform P01116-2 G12S): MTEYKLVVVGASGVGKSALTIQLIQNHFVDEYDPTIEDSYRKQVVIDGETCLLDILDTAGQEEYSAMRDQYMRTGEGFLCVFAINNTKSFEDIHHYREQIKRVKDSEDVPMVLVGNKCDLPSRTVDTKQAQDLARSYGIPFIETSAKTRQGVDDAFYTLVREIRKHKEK
T5 sequence (P01116 1-169 isoform P01116-2 G12C): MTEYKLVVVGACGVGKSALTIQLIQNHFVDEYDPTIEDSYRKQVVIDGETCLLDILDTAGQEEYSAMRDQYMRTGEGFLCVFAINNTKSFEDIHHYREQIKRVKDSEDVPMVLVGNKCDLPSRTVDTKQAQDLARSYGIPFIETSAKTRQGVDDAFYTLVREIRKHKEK

Consider `CN(C)C(=O)N(C)C(=O)CCCN(C)c1nc(OC[C@@]23CCCN2C[C@H](F)C3)nc2c(F)c(-c3ccc(F)c4sc(N)c(C#N)c34)c(Cl)cc12` [Example 239, 4-((7-(2-amino-3-cyano-7-fluorobenzo[b]thiophen-4-yl)-6-chloro-8-fluoro-2-(((2R,7aS)-2-fluorotetrahydro-1H-pyrrolizin-7a(5H)-yl)methoxy)quinazolin-4-yl)(methyl)amino)-N-(dimethylcarbamoyl)-N-methylbutanamide], for which the IC50 stood at 114 nM in experiment [1]; 171 nM in experiment [2]; 8 nM on KRas G12S; 11 nM at KRas WT; 6 nM at KRas G12C; 669 nM in experiment [3].

For `CN(C(=O)CCCN(C)c1nc(OC[C@@]23CCCN2C[C@H](F)C3)nc2c(F)c(-c3ccc(F)c4sc(N)c(C#N)c34)c(Cl)cc12)C(=O)c1cnn(C)c1` [Example 306, N-(4-((7-(2-amino-3-cyano-7-fluorobenzo[b]thiophen-4-yl)-6-chloro-8-fluoro-2-(((2R,7aS)-2-fluorotetrahydro-1H-pyrrolizin-7a(5H)-yl)methoxy)quinazolin-4-yl)(methyl)amino)butanoyl)-N, 1-dimethyl-1H-pyrazole-4-carboxamide], the IC50 in experiment [1] came to 45 nM; in experiment [2], 134 nM; at KRas G12S it was 7 nM; on KRas WT, 10 nM; at KRas G12C, 5 nM; in experiment [3], 92 nM.

With `CCc1c(F)ccc2cc(O)cc(-c3ncc4c(N5CCC(C(=O)n6ccc(C)n6)CC5)nc(OC[C@@]56CCCN5C[C@H](F)C6)nc4c3F)c12` [Example 1, (1-(7-(8-ethyl-7-fluoro-3-hydroxynaphthalen-1-yl)-8-fluoro-2-(((2R,7aS)-2-fluorotetrahydro-1H-pyrrolizin-7a(5H)-yl)methoxy)pyrido[4,3-d]pyrimidin-4-yl)piperidin-4-yl)(3-methyl-1H-pyrazol-1-yl)methanone], the IC50 in experiment [1] stood at 3720 nM; in experiment [2], 4000 nM; at KRas G12S, 36 nM; on KRas WT, 63 nM; on KRas G12C, 77 nM; in experiment [3], 109 nM.

On to `Cc1ccn(C(=O)CCN(C)c2nc(OC[C@@]34CCCN3C[C@H](F)C4)nc3c(F)c(-c4ccc(F)c5sc(N)c(C#N)c45)c(Cl)cc23)n1` [Example 176, 2-amino-4-(6-chloro-8-fluoro-2-(((2R,7aS)-2-fluorotetrahydro-1H-pyrrolizin-7a(5H)-yl)methoxy)-4-(methyl(3-(3-methyl-1H-pyrazol-1-yl)-3-oxopropyl)amino)quinazolin-7-yl)-7-fluorobenzo[b]thiophene-3-carbonitrile], for which the 50% inhibitory concentration (IC50) in experiment [1] worked out at 295 nM; in experiment [2], 250 nM; at KRas G12S, 5 nM; at KRas WT, 12 nM; on KRas G12C it was 3 nM; in experiment [3] it was 388 nM.

Consider `CC(=O)N(C)C(=O)CCCN(C)c1nc(OC[C@@]23CCCN2C[C@H](F)C3)nc2c(F)c(-c3ccc(F)c4sc(N)c(C#N)c34)c(Cl)cc12` [Example 259, N-acetyl-4-((7-(2-amino-3-cyano-7-fluorobenzo[b]thiophen-4-yl)-6-chloro-8-fluoro-2-(((2R,7aS)-2-fluorotetrahydro-1H-pyrrolizin-7a(5H)-yl)methoxy)quinazolin-4-yl)(methyl)amino)-N-methylbutanamide], for which the IC50 in experiment [1] was 80 nM; in experiment [2], 125 nM; on KRas G12S, 3 nM; on KRas WT, 8 nM; at KRas G12C, 3 nM; in experiment [3], 19 nM.

As for `COc1ccccc1OC(=O)C1CCN(c2nc(OC[C@@]34CCCN3C[C@H](F)C4)nc3c(F)c(-c4ccc(F)c5sc(N)c(C#N)c45)c(Cl)cc23)CC1` [Example 300, 2-methoxyphenyl 1-(7-(2-amino-3-cyano-7-fluorobenzo[b]thiophen-4-yl)-6-chloro-8-fluoro-2-(((2R,7aS)-2-fluorotetrahydro-1H-pyrrolizin-7a(5H)-yl)methoxy)quinazolin-4-yl)piperidine-4-carboxylate], the IC50 in experiment [1] came to 9 nM; in experiment [2], 408 nM; at KRas G12S, 85 nM; on KRas WT it was 163 nM; on KRas G12C, 9 nM; in experiment [3], 115 nM.

Turning to `CN(C(=O)C1CCN(c2nc(OC[C@@]34CCCN3C[C@H](F)C4)nc3c(F)c(-c4ccc(F)c5sc(N)c(C#N)c45)c(Cl)cc23)CC1)c1cccnc1` [Example 289, 1-(7-(2-amino-3-cyano-7-fluorobenzo[b]thiophen-4-yl)-6-chloro-8-fluoro-2-(((2R,7aS)-2-fluorotetrahydro-1H-pyrrolizin-7a(5H)-yl)methoxy)quinazolin-4-yl)-N-methyl-N-(pyridin-3-yl)piperidine-4-carboxamide], the IC50 in experiment [1] worked out at 81 nM; in experiment [2] it was 33 nM; on KRas G12S, 18 nM; on KRas WT, 5 nM; on KRas G12C, 10 nM; in experiment [3], 271 nM.

Take `CCc1c(F)ccc2cc(O)cc(-c3ncc4c(N5CC[C@H](C(=O)n6ccc(C)n6)[C@H](C)C5)nc(OC[C@@]56CCCN5C[C@H](F)C6)nc4c3F)c12` [Example 85, ((3S,4S)-1-(7-(8-ethyl-7-fluoro-3-hydroxynaphthalen-1-yl)-8-fluoro-2-(((2R,7aS)-2-fluorotetrahydro-1H-pyrrolizin-7a(5H)-yl)methoxy)pyrido[4,3-d]pyrimidin-4-yl)-3-methylpiperidin-4-yl)(3-methyl-1H-pyrazol-1-yl)methanone]: the IC50 in experiment [1] is 458 nM; in experiment [2] it was 48 nM; at KRas G12S, 17 nM; on KRas WT, 8 nM; at KRas G12C it was 28 nM; in experiment [3], 883 nM.

For `CN(CCCC(=O)Oc1ccc(F)cc1F)c1nc(OC[C@@]23CCCN2C[C@H](F)C3)nc2c(F)c(-c3ccc(F)c4sc(N)c(C#N)c34)c(Cl)cc12` [Example 271, 2,4-difluorophenyl 4-((7-(2-amino-3-cyano-7-fluorobenzo[b]thiophen-4-yl)-6-chloro-8-fluoro-2-(((2R,7aS)-2-fluorotetrahydro-1H-pyrrolizin-7a(5H)-yl)methoxy)quinazolin-4-yl)(methyl)amino)butanoate], the IC50 in experiment [1] was determined as 31 nM; in experiment [2], 177 nM; at KRas G12S, 16 nM; on KRas WT it was 81 nM; on KRas G12C it was 4 nM; in experiment [3], 139 nM.

Regarding `CN(C)c1ccn(C(=O)C2CCCN(c3nc(OC[C@@]45CCCN4C[C@H](F)C5)nc4c(F)c(-c5ccc(F)c6sc(N)c(C#N)c56)c(Cl)cc34)CC2)n1` (stereo partly drawn) [Example 188, 2-amino-4-(6-chloro-4-(4-(3-(dimethylamino)-1H-pyrazole-1-carbonyl)azepan-1-yl)-8-fluoro-2-(((2R,7aS)-2-fluorotetrahydro-1H-pyrrolizin-7a(5H)-yl)methoxy)quinazolin-7-yl)-7-fluorobenzo[b]thiophene-3-carbonitrile], the 50% inhibitory concentration (IC50) was 9 nM in experiment [1]; 140 nM in experiment [2]; 13 nM at KRas G12S; 26 nM at KRas WT; 8 nM at KRas G12C; 39 nM in experiment [3].

`CCc1c(F)ccc2cc(O)cc(-c3ncc4c(N5CCC(C(=O)n6ccc(N(C)C)n6)CC5)nc(OC[C@@]56CCCN5C[C@H](F)C6)nc4c3F)c12` [Example 58, (3-(dimethylamino)-1H-pyrazol-1-yl)(1-(7-(8-ethyl-7-fluoro-3-hydroxynaphthalen-1-yl)-8-fluoro-2-(((2R,7aS)-2-fluorotetrahydro-1H-pyrrolizin-7a(5H)-yl)methoxy)pyrido[4,3-d]pyrimidin-4-yl)piperidin-4-yl)methanone]: the IC50 in experiment [1] was found to be 677 nM; in experiment [2], 427 nM; on KRas G12S it was 221 nM; at KRas WT it was 89 nM; on KRas G12C, 108 nM; in experiment [3], 338 nM.

As to `N#Cc1c(N)sc2c(F)ccc(-c3c(Cl)cc4c(N5CCC(C(=O)Oc6cccnc6)CC5)nc(OC[C@@]56CCCN5C[C@H](F)C6)nc4c3F)c12` [Example 296, pyridin-3-yl 1-(7-(2-amino-3-cyano-7-fluorobenzo[b]thiophen-4-yl)-6-chloro-8-fluoro-2-(((2R,7aS)-2-fluorotetrahydro-1H-pyrrolizin-7a(5H)-yl)methoxy)quinazolin-4-yl)piperidine-4-carboxylate], the IC50 in experiment [1] came to 15 nM; in experiment [2], 318 nM; at KRas G12S, 3 nM; on KRas WT, 30 nM; at KRas G12C it was 3 nM; in experiment [3] it was 16 nM.
